Measured values reported in the supplement of paper PMC11451515.

Assays:
Settings in all cases: 48 h
P12-Ichikawa [1] = test: cell viability relative to DMSO control; higher = less cytotoxic
Summary of the method: (§1)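 Viability values are per-plate percentages of DMSO wells, with background from cell-free wells. Library compounds in DMSO were pin-dosed, in an 11-point threefold series from 47 μM to 0.79 nM, onto NOMO1 or SEM (500 cells/well) or P12-Ichikawa (1000 cells/well) leukemia cells in 1536-well plates (5 μl). Those cells had been adapted for at least four passages in each medium, and CellTiter-Glo One luminescence was read after 48 h at 37°C.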

SEM cells [2] = test: as above
Summary of the method: as §1

NOMO1 [3] = test: AUC of viability dose-response curve (% viability x log10 dose units); higher = less sensitive
Summary of the method: (§2)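 Library compounds in DMSO were applied for 48 h at 37°C at 11 threefold doses (47 μM to 0.79 nM) to medium-adapted leukemia cells in 1536-well plates holding 500 or 1000 cells/well. Luminescence from CellTiter-Glo One was normalised plate by plate against DMSO and cell-free wells. Area under the curve came from trapezoidal integration of a log-logistic fit, after scaling curves that rose above full viability and discarding those that failed quality control. The fit had four parameters and used log10 doses.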

P12-Ichikawa [4] = test: as above
Summary of the method: as §2

SEM cells [5] = test: as above
Summary of the method: as §2

NOMO1 [6] = test: cell viability relative to DMSO control; higher = less cytotoxic
Summary of the method: as §1

COc1ccc(/C=C\c2cc(OC)c(OC)c(OC)c2)cc1NC(=O)[C@H](N)CO
cell viability [%], RPMI 5 mM glucose + 10% FBS
Settings | P12-Ichikawa [1] | SEM cells [2]
0.000781 µM | 121 | 104
0.00234 µM | 144 | 118
0.00702 µM | 125 | 115
0.0211 µM | 50.9 | 58.1
0.0632 µM | 24.6 | 15
0.19 µM | 13.8 | 11.1
0.569 µM | 9.28 | 14.7
1.71 µM | 7.31 | 7.29
5.12 µM | 8.08 | 6.77
15.4 µM | 4.52 | 3.55
46.1 µM | 4.09 | 3.19

AUC of viability dose-response curve
Settings | NOMO1 [3] | P12-Ichikawa [4] | SEM cells [5]
HPLM + 10% dialyzed FBS | 209 | 179 | 190
RPMI 5 mM glucose + 10% FBS | 188 | 157 | 167
RPMI 5 mM glucose + 10% dialyzed FBS | 206 | 202 | 186

CCNC(=O)Nc1ccc(Oc2ncnc(N)c2/C=N/OC)cc1Cl
cell viability [%]
Settings | NOMO1 [6] | P12-Ichikawa [1] | SEM cells [2]
HPLM + 10% dialyzed FBS, 0.000781 µM | 104 | 107 | 96.9
HPLM + 10% dialyzed FBS, 0.00234 µM | 113 | 114 | 100
HPLM + 10% dialyzed FBS, 0.00702 µM | 111 | 107 | 99.8
HPLM + 10% dialyzed FBS, 0.0211 µM | 115 | 116 | 105
HPLM + 10% dialyzed FBS, 0.0632 µM | 109 | 123 | 110
HPLM + 10% dialyzed FBS, 0.19 µM | 113 | 119 | 112
HPLM + 10% dialyzed FBS, 0.569 µM | 133 | 119 | 117
HPLM + 10% dialyzed FBS, 1.71 µM | 125 | 118 | 73.5
HPLM + 10% dialyzed FBS, 5.12 µM | 127 | 106 | 78.5
HPLM + 10% dialyzed FBS, 15.4 µM | 105 | 101 | 68.1
HPLM + 10% dialyzed FBS, 46.1 µM | 111 | 120 | 83.1
RPMI 5 mM glucose + 10% FBS, 0.000781 µM | 112 | 111 | 75.3
RPMI 5 mM glucose + 10% FBS, 0.00234 µM | 118 | 113 | 84.1
RPMI 5 mM glucose + 10% FBS, 0.00702 µM | 114 | 117 | 75.5
RPMI 5 mM glucose + 10% FBS, 0.0211 µM | 115 | 117 | 78.7
RPMI 5 mM glucose + 10% FBS, 0.0632 µM | 119 | 121 | 74.9
RPMI 5 mM glucose + 10% FBS, 0.19 µM | 113 | 128 | 79.5
RPMI 5 mM glucose + 10% FBS, 0.569 µM | 113 | 126 | 70.5
RPMI 5 mM glucose + 10% FBS, 1.71 µM | 121 | 121 | 37.4
RPMI 5 mM glucose + 10% FBS, 5.12 µM | 118 | 117 | 70
RPMI 5 mM glucose + 10% FBS, 15.4 µM | 124 | 111 | 44.8
RPMI 5 mM glucose + 10% FBS, 46.1 µM | 122 | 131 | 56.8
RPMI 5 mM glucose + 10% dialyzed FBS, 0.000781 µM | 90.2 | 106 | 99.5
RPMI 5 mM glucose + 10% dialyzed FBS, 0.00234 µM | 113 | 116 | 103
RPMI 5 mM glucose + 10% dialyzed FBS, 0.00702 µM | 98.1 | 119 | 111
RPMI 5 mM glucose + 10% dialyzed FBS, 0.0211 µM | 101 | 122 | 111
RPMI 5 mM glucose + 10% dialyzed FBS, 0.0632 µM | 114 | 124 | 108
RPMI 5 mM glucose + 10% dialyzed FBS, 0.19 µM | 109 | 123 | 117
RPMI 5 mM glucose + 10% dialyzed FBS, 0.569 µM | 117 | 118 | 111
RPMI 5 mM glucose + 10% dialyzed FBS, 1.71 µM | 112 | 122 | 55.9
RPMI 5 mM glucose + 10% dialyzed FBS, 5.12 µM | 103 | 119 | 75.4
RPMI 5 mM glucose + 10% dialyzed FBS, 15.4 µM | 109 | 107 | 56
RPMI 5 mM glucose + 10% dialyzed FBS, 46.1 µM | 125 | 107 | 74.7

AUC of viability dose-response curve
Settings | HPLM + 10% dialyzed FBS | RPMI 5 mM glucose + 10% FBS | RPMI 5 mM glucose + 10% dialyzed FBS
NOMO1 [3] | 460 | 459 | 441
P12-Ichikawa [4] | 477 | 458 | 471

C[C@]1(O)CC(C1)C2=NC(=C3[N]2C=CN=C3N)C4=CC5=C(C=C4)C=CC(=N5)C6=CC=CC=C6 (stereo not given)
cell viability [%]
Settings | NOMO1 [6] | P12-Ichikawa [1] | SEM cells [2]
HPLM + 10% dialyzed FBS, 0.000781 µM | 95.7 | 94 | 77.3
HPLM + 10% dialyzed FBS, 0.00234 µM | 83.7 | 97.3 | 81.7
HPLM + 10% dialyzed FBS, 0.00702 µM | 104 | 104 | 87.6
HPLM + 10% dialyzed FBS, 0.0211 µM | 89.9 | 103 | 90.4
HPLM + 10% dialyzed FBS, 0.0632 µM | 107 | 107 | 87.1
HPLM + 10% dialyzed FBS, 0.19 µM | 72.2 | 97.7 | 67.6
HPLM + 10% dialyzed FBS, 0.569 µM | 75.1 | 105 | 76
HPLM + 10% dialyzed FBS, 1.71 µM | 53.8 | 97.4 | 47.2
HPLM + 10% dialyzed FBS, 5.12 µM | 31.8 | 75.5 | 26.5
HPLM + 10% dialyzed FBS, 15.4 µM | 3.24 | 4.9 | 3.17
HPLM + 10% dialyzed FBS, 46.1 µM | 4.22 | 1.89 | 2.38
RPMI 5 mM glucose + 10% FBS, 0.000781 µM | 86 | 102 | 95.8
RPMI 5 mM glucose + 10% FBS, 0.00234 µM | 88 | 101 | 96.8
RPMI 5 mM glucose + 10% FBS, 0.00702 µM | 92.8 | 103 | 105
RPMI 5 mM glucose + 10% FBS, 0.0211 µM | 85.6 | 101 | 103
RPMI 5 mM glucose + 10% FBS, 0.0632 µM | 87.4 | 93.5 | 105
RPMI 5 mM glucose + 10% FBS, 0.19 µM | 85.3 | 89.6 | 66.4
RPMI 5 mM glucose + 10% FBS, 0.569 µM | 83.5 | 96.4 | 68.8
RPMI 5 mM glucose + 10% FBS, 1.71 µM | 64.3 | 59.5 | 42.2
RPMI 5 mM glucose + 10% FBS, 5.12 µM | 33.7 | 50.3 | 16.6
RPMI 5 mM glucose + 10% FBS, 15.4 µM | 3.26 | 3.05 | 3.06
RPMI 5 mM glucose + 10% FBS, 46.1 µM | 2.26 | 1.49 | 1.58
RPMI 5 mM glucose + 10% dialyzed FBS, 0.000781 µM | 86.2 | 96.1 | 77.7
RPMI 5 mM glucose + 10% dialyzed FBS, 0.00234 µM | 73.9 | 96.5 | 67.5
RPMI 5 mM glucose + 10% dialyzed FBS, 0.00702 µM | 83.8 | 94.5 | 80.7
RPMI 5 mM glucose + 10% dialyzed FBS, 0.0211 µM | 91.6 | 98.2 | 84
RPMI 5 mM glucose + 10% dialyzed FBS, 0.0632 µM | 90.5 | 101 | 87.2
RPMI 5 mM glucose + 10% dialyzed FBS, 0.19 µM | 65.8 | 94.5 | 55.8
RPMI 5 mM glucose + 10% dialyzed FBS, 0.569 µM | 82.5 | 99 | 72.5
RPMI 5 mM glucose + 10% dialyzed FBS, 1.71 µM | 53.3 | 71 | 42.7
RPMI 5 mM glucose + 10% dialyzed FBS, 5.12 µM | 37.7 | 58.2 | 24.3
RPMI 5 mM glucose + 10% dialyzed FBS, 15.4 µM | 4.27 | 4.69 | 3.02
RPMI 5 mM glucose + 10% dialyzed FBS, 46.1 µM | 1.68 | 1.85 | 1.93

AUC of viability dose-response curve
Settings | HPLM + 10% dialyzed FBS | RPMI 5 mM glucose + 10% FBS | RPMI 5 mM glucose + 10% dialyzed FBS
NOMO1 [3] | 321 | 319 | 301
P12-Ichikawa [4] | 396 | 358 | 366

Nc1cccc([S+](=O)([O-])N2CCCN([S+](=O)([O-])c3ccc4c(c3)OCCO4)CC2)c1
AUC of viability dose-response curve
Settings | NOMO1 [3] | P12-Ichikawa [4] | SEM cells [5]
HPLM + 10% dialyzed FBS | 445 | 444 | 460
RPMI 5 mM glucose + 10% FBS | 464 | 464 | 434
RPMI 5 mM glucose + 10% dialyzed FBS | 447 | 460 | 437
